Molecules are shown by their SMILES. “Also recorded” adds a separate entry of the source.

For experiment [1], the system named is MDA-MB-468 cells. In words: Cell proliferation assay (cell counting). The format is cell-based, human. To be noted: over a 48-hour period. The method, then: Equal numbers of BR293 and MDA-MB-468 cells were seeded in MEM containing 10% FCS into 10 cm dishes. […]. For the 48 time points, fresh medium containing the appropriate inhibitor was applied to the cells after 24 hours. Controls were allowed to grow for 48 hours in the absence of inhibitor. Thereafter, all the cells were washed twice with ice cold PBS, harvested and counted under a phase-contrast microscope. Values are expressed as averages+S.D. (n=3).
Equal numbers of BR293, MCF-10F, MCF-7, MDA-MB-468, HKEK293 and COS1 cells were seeded in the appropriate growth medium into 10 cm dishes. Cells were allowed to grow in the presence of various concentrations of OdDHL or OHHL for 24 or 48 hours. For the 48-hour time points, fresh medium containing the appropriate inhibitor was applied to the cells after 24 hours. Controls were allowed to grow for 48 hours in the absence of inhibitor. Thereafter, all the cells were washed twice with ice cold PBS, harvested and counted under a phase-contrast microscope. Values are expressed as averages ±S.D. (n=3).

Experiment [2] concerns autocrine factor release from BR293 cells. In words: Autocrine factor release: CM from pre-treated serum-stimulated cells tested for STAT3 phosphorylation. It counts as cell-based, human. Conditions: 100 μM (FIG. 18d). The method, then:
OdDHL blocks the autocrine release of mitogens from BC cells (a) Equal numbers of BR293 cells were cultured in MEM alone, serum-free MEM conditioned by serum-stimulated BR293 cells for 2 hours, or the same supplemented with 5% FCS, as indicated. After 24 hours [^3H]-thymidine was added to the medium. After a further 18 hours, cells were harvested and analysed for incorporation of ^3H. Error bars denote SD (n=4). (b) BR293 cells were serum-starved (lane 1) or starved and stimulated with 10% FCS for 2 hours directly (lane 2) or after pretreatment with α-amanitin (1004/ml) for 2.5 hours (lane 3) or actinomycin D ([…]) for 10 min (lane 4). […] (c) BR293 cells were serum-starved (lane 1) or starved and stimulated with 10% FCS alone for 2 hours (lane 2), with serum-free CM alone for 15 min (lane 5) or in the presence of increasing 100 μM AG490 (lanes 3 and 6) or 100 μM OdDHL (lanes 4 and 7). Cell lysates were prepared and analysed by Western blotting as described in the legend to FIG. 1a. (d) BR293 cells were stimulated with 10% FCS in the presence of 100 μM OHHL (lane 1) or OdDHL (lane 2). After 2 hours the cells were washed and incubated for a further 2 hours in serum-free MEM. […] Lysates were prepared from all the cells and analysed by Western blotting as described in the legend to FIG. 1a.

On to `CCCCCCCCCC(=O)CC(=O)N[C@H]1CCOC1=O` [OdDHL, N-(3-oxo-dodecanoyl)-L-homoserine lactone], for which, in experiment [1], the inhibition of proliferation is on record as 70%-80%. Besides, the “STAT3 phosphorylation induced by CM from serum-stimulated cells pre-treated with the compound” value in experiment [2] is given as “unable to stimulate STAT3 phosphorylation; also recorded: failed to induce STAT3 phosphorylation”.

Values taken from patent US20040259942A1, “Modulation of stat activity” (priority 2001, published 2004).
